Measured values from PubChem BioAssay (NCI).
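Grown in 96-well plates, cells were treated for 48 hours with each compound at five concentrations. Insufficient inhibition: endpoint recorded as highest concentration tested. GI50 = concentration required for 50% inhibition of growth. TGI denotes the concentration required for complete inhibition of growth.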

system: M14 melanoma; experiment: inhibition of tumour cell growth, NCI panel, 48 h

`Cn1cc(C2=C(c3cn(C)c4c(N)cccc34)C(=O)NC2=O)c2ccccc21` gave a GI50 of 2.15 µM.

`Cn1cc(C2=C(c3cn(C)c4c(N)cccc34)C(=O)NC2=O)c2ccccc21` and `O=[N+]([O-])c1ccc2nnnn2c1` cannot be ordered by TGI: greater than 25 µM for the first, greater than 100 µM for the second.

system: HS 578T breast; experiment: inhibition of tumour cell growth, NCI panel, 48 h

In order of rising GI50:
1. Cn1cc(C2=C(c3cn(C)c4c(N)cccc34)C(=O)NC2=O)c2ccccc21  0.618 µM
2. COc1ccc(-n2c(SCc3cc(OC)c(OC)c(OC)c3)nc3ccc(C)cc3c2=O)cc1  6.06 µM
3. COc1cccc(N=Cc2c3ccccc3c(=O)n3c2oc2ccccc23)c1  34.9 µM

`COc1ccc(-n2c(SCc3cc(OC)c(OC)c(OC)c3)nc3ccc(C)cc3c2=O)cc1` and `COc1cccc(N=Cc2c3ccccc3c(=O)n3c2oc2ccccc23)c1` cannot be ordered by TGI: greater than 100 µM for the first, greater than 100 µM for the second.

First: Cn1cc(C2=C(c3cn(C)c4c(N)cccc34)C(=O)NC2=O)c2ccccc21
Second: O=[N+]([O-])c1ccc2nnnn2c1
The TGI of the first is lower: 19 µM for the first, greater than 100 µM for the second.

system: RPMI-8226 leukemia; experiment: inhibition of tumour cell growth, NCI panel, 48 h

In order of falling GI50:
1. COc1cccc(N=Cc2c3ccccc3c(=O)n3c2oc2ccccc23)c1  6.54 µM
2. COc1ccc(-n2c(SCc3cc(OC)c(OC)c(OC)c3)nc3ccc(C)cc3c2=O)cc1  2.55 µM
3. Cn1cc(C2=C(c3cn(C)c4c(N)cccc34)C(=O)NC2=O)c2ccccc21  2.44 µM

In order of falling TGI:
1. COc1ccc(-n2c(SCc3cc(OC)c(OC)c(OC)c3)nc3ccc(C)cc3c2=O)cc1  50.9 µM
2. COc1cccc(N=Cc2c3ccccc3c(=O)n3c2oc2ccccc23)c1  42.6 µM
3. Cn1cc(C2=C(c3cn(C)c4c(N)cccc34)C(=O)NC2=O)c2ccccc21  12.5 µM

system: BT-549 breast; experiment: inhibition of tumour cell growth, NCI panel, 48 h

In order of falling GI50:
1. COc1cccc(N=Cc2c3ccccc3c(=O)n3c2oc2ccccc23)c1  21.9 µM
2. COc1ccc(-n2c(SCc3cc(OC)c(OC)c(OC)c3)nc3ccc(C)cc3c2=O)cc1  7.37 µM
3. Cn1cc(C2=C(c3cn(C)c4c(N)cccc34)C(=O)NC2=O)c2ccccc21  1.01 µM

`COc1ccc(-n2c(SCc3cc(OC)c(OC)c(OC)c3)nc3ccc(C)cc3c2=O)cc1` and `COc1cccc(N=Cc2c3ccccc3c(=O)n3c2oc2ccccc23)c1` cannot be ordered by TGI: greater than 100 µM for the first, greater than 100 µM for the second.

Compared with `Cn1cc(C2=C(c3cn(C)c4c(N)cccc34)C(=O)NC2=O)c2ccccc21`, `O=[N+]([O-])c1ccc2nnnn2c1` is higher in TGI: 6.66 µM for the first, greater than 100 µM for the second.

system: UACC-62 melanoma; experiment: inhibition of tumour cell growth, NCI panel, 48 h

In order of rising GI50:
1. Cn1cc(C2=C(c3cn(C)c4c(N)cccc34)C(=O)NC2=O)c2ccccc21  2.48 µM
2. COc1cccc(N=Cc2c3ccccc3c(=O)n3c2oc2ccccc23)c1  2.58 µM
3. COc1ccc(-n2c(SCc3cc(OC)c(OC)c(OC)c3)nc3ccc(C)cc3c2=O)cc1  6.82 µM

Compared with `COc1ccc(-n2c(SCc3cc(OC)c(OC)c(OC)c3)nc3ccc(C)cc3c2=O)cc1`, `COc1cccc(N=Cc2c3ccccc3c(=O)n3c2oc2ccccc23)c1` is lower in TGI: greater than 100 µM for the first, 12.9 µM for the second.

Compared with `Cn1cc(C2=C(c3cn(C)c4c(N)cccc34)C(=O)NC2=O)c2ccccc21`, `O=[N+]([O-])c1ccc2nnnn2c1` is higher in TGI: 18.1 µM for the first, greater than 100 µM for the second.

system: HCC-2998 colon; experiment: inhibition of tumour cell growth, NCI panel, 48 h

Compared with `COc1ccc(-n2c(SCc3cc(OC)c(OC)c(OC)c3)nc3ccc(C)cc3c2=O)cc1`, `COc1cccc(N=Cc2c3ccccc3c(=O)n3c2oc2ccccc23)c1` is lower in GI50: greater than 100 µM for the first, 6.81 µM for the second.

Work on `Cn1cc(C2=C(c3cn(C)c4c(N)cccc34)C(=O)NC2=O)c2ccccc21` yielded a GI50 of 6.01 µM.

First: COc1ccc(-n2c(SCc3cc(OC)c(OC)c(OC)c3)nc3ccc(C)cc3c2=O)cc1
Second: COc1cccc(N=Cc2c3ccccc3c(=O)n3c2oc2ccccc23)c1
The TGI of the first is higher: greater than 100 µM for the first, 44.9 µM for the second.

Compound `Cn1cc(C2=C(c3cn(C)c4c(N)cccc34)C(=O)NC2=O)c2ccccc21` has a TGI greater than 25 µM.

system: OVCAR-5 ovarian; experiment: inhibition of tumour cell growth, NCI panel, 48 h

Compared with `COc1ccc(-n2c(SCc3cc(OC)c(OC)c(OC)c3)nc3ccc(C)cc3c2=O)cc1`, `COc1cccc(N=Cc2c3ccccc3c(=O)n3c2oc2ccccc23)c1` is lower in GI50: greater than 100 µM for the first, 27.1 µM for the second.

`Cn1cc(C2=C(c3cn(C)c4c(N)cccc34)C(=O)NC2=O)c2ccccc21` gave a GI50 of 6.41 µM.

Compared with `COc1ccc(-n2c(SCc3cc(OC)c(OC)c(OC)c3)nc3ccc(C)cc3c2=O)cc1`, `COc1cccc(N=Cc2c3ccccc3c(=O)n3c2oc2ccccc23)c1` is lower in TGI: greater than 100 µM for the first, 87.4 µM for the second.

`Cn1cc(C2=C(c3cn(C)c4c(N)cccc34)C(=O)NC2=O)c2ccccc21` and `O=[N+]([O-])c1ccc2nnnn2c1` cannot be ordered by TGI: greater than 22.1 µM for the first, greater than 100 µM for the second.

system: SK-MEL-2 melanoma; experiment: inhibition of tumour cell growth, NCI panel, 48 h

Going from `COc1ccc(-n2c(SCc3cc(OC)c(OC)c(OC)c3)nc3ccc(C)cc3c2=O)cc1` to `COc1cccc(N=Cc2c3ccccc3c(=O)n3c2oc2ccccc23)c1`, the GI50 rises from 8.73 µM to greater than 100 µM.

`Cn1cc(C2=C(c3cn(C)c4c(N)cccc34)C(=O)NC2=O)c2ccccc21` was tested, and the GI50 was 1.56 µM.

`COc1ccc(-n2c(SCc3cc(OC)c(OC)c(OC)c3)nc3ccc(C)cc3c2=O)cc1` and `COc1cccc(N=Cc2c3ccccc3c(=O)n3c2oc2ccccc23)c1` cannot be ordered by TGI: greater than 100 µM for the first, greater than 100 µM for the second.

Compared with `Cn1cc(C2=C(c3cn(C)c4c(N)cccc34)C(=O)NC2=O)c2ccccc21`, `O=[N+]([O-])c1ccc2nnnn2c1` is 6.1-fold higher in TGI: 11 µM for the first, 67.1 µM for the second.

system: SN12C renal; experiment: inhibition of tumour cell growth, NCI panel, 48 h

In order of falling GI50:
1. COc1ccc(-n2c(SCc3cc(OC)c(OC)c(OC)c3)nc3ccc(C)cc3c2=O)cc1  52.7 µM
2. COc1cccc(N=Cc2c3ccccc3c(=O)n3c2oc2ccccc23)c1  2.22 µM
3. Cn1cc(C2=C(c3cn(C)c4c(N)cccc34)C(=O)NC2=O)c2ccccc21  2.12 µM

Compared with `COc1ccc(-n2c(SCc3cc(OC)c(OC)c(OC)c3)nc3ccc(C)cc3c2=O)cc1`, `COc1cccc(N=Cc2c3ccccc3c(=O)n3c2oc2ccccc23)c1` is lower in TGI: greater than 100 µM for the first, 23.5 µM for the second.

`Cn1cc(C2=C(c3cn(C)c4c(N)cccc34)C(=O)NC2=O)c2ccccc21` and `O=[N+]([O-])c1ccc2nnnn2c1` cannot be ordered by TGI: greater than 25 µM for the first, greater than 100 µM for the second.

system: MALME-3M melanoma; experiment: inhibition of tumour cell growth, NCI panel, 48 h

In order of rising GI50:
1. Cn1cc(C2=C(c3cn(C)c4c(N)cccc34)C(=O)NC2=O)c2ccccc21  9.53 µM
2. COc1ccc(-n2c(SCc3cc(OC)c(OC)c(OC)c3)nc3ccc(C)cc3c2=O)cc1  59.8 µM

`COc1ccc(-n2c(SCc3cc(OC)c(OC)c(OC)c3)nc3ccc(C)cc3c2=O)cc1` and `Cn1cc(C2=C(c3cn(C)c4c(N)cccc34)C(=O)NC2=O)c2ccccc21` cannot be ordered by TGI: greater than 100 µM for the first, greater than 25 µM for the second.

Compound `O=[N+]([O-])c1ccc2nnnn2c1` has a TGI of 60.5 µM.

system: KM12 colon; experiment: inhibition of tumour cell growth, NCI panel, 48 h

In order of falling GI50:
1. COc1ccc(-n2c(SCc3cc(OC)c(OC)c(OC)c3)nc3ccc(C)cc3c2=O)cc1  4.57 µM
2. COc1cccc(N=Cc2c3ccccc3c(=O)n3c2oc2ccccc23)c1  3.78 µM
3. Cn1cc(C2=C(c3cn(C)c4c(N)cccc34)C(=O)NC2=O)c2ccccc21  0.968 µM

Going from `COc1ccc(-n2c(SCc3cc(OC)c(OC)c(OC)c3)nc3ccc(C)cc3c2=O)cc1` to `COc1cccc(N=Cc2c3ccccc3c(=O)n3c2oc2ccccc23)c1`, the TGI falls from greater than 100 µM to 42.8 µM.

Compared with `Cn1cc(C2=C(c3cn(C)c4c(N)cccc34)C(=O)NC2=O)c2ccccc21`, `O=[N+]([O-])c1ccc2nnnn2c1` is higher in TGI: 12.1 µM for the first, greater than 100 µM for the second.

system: NCI-H23 lung; experiment: inhibition of tumour cell growth, NCI panel, 48 h

In order of rising GI50:
1. Cn1cc(C2=C(c3cn(C)c4c(N)cccc34)C(=O)NC2=O)c2ccccc21  4.33 µM
2. COc1cccc(N=Cc2c3ccccc3c(=O)n3c2oc2ccccc23)c1  13.3 µM
3. COc1ccc(-n2c(SCc3cc(OC)c(OC)c(OC)c3)nc3ccc(C)cc3c2=O)cc1  32.7 µM

Going from `COc1ccc(-n2c(SCc3cc(OC)c(OC)c(OC)c3)nc3ccc(C)cc3c2=O)cc1` to `COc1cccc(N=Cc2c3ccccc3c(=O)n3c2oc2ccccc23)c1`, the TGI falls from greater than 100 µM to 59 µM.

First: Cn1cc(C2=C(c3cn(C)c4c(N)cccc34)C(=O)NC2=O)c2ccccc21
Second: O=[N+]([O-])c1ccc2nnnn2c1
The TGI of the first is lower: 21.3 µM for the first, greater than 100 µM for the second.

system: HOP-92 NSCLC; experiment: inhibition of tumour cell growth, NCI panel, 48 h

In order of falling GI50:
1. COc1ccc(-n2c(SCc3cc(OC)c(OC)c(OC)c3)nc3ccc(C)cc3c2=O)cc1  1.75 µM
2. COc1cccc(N=Cc2c3ccccc3c(=O)n3c2oc2ccccc23)c1  1.68 µM

Going from `COc1ccc(-n2c(SCc3cc(OC)c(OC)c(OC)c3)nc3ccc(C)cc3c2=O)cc1` to `COc1cccc(N=Cc2c3ccccc3c(=O)n3c2oc2ccccc23)c1`, the TGI falls from greater than 100 µM to 30.7 µM.

`O=[N+]([O-])c1ccc2nnnn2c1` was tested, and the TGI was greater than 100 µM.

system: HCT-116 colon; experiment: inhibition of tumour cell growth, NCI panel, 48 h

In order of rising GI50:
1. Cn1cc(C2=C(c3cn(C)c4c(N)cccc34)C(=O)NC2=O)c2ccccc21  1.03 µM
2. COc1ccc(-n2c(SCc3cc(OC)c(OC)c(OC)c3)nc3ccc(C)cc3c2=O)cc1  3.38 µM
3. COc1cccc(N=Cc2c3ccccc3c(=O)n3c2oc2ccccc23)c1  5.62 µM

`COc1ccc(-n2c(SCc3cc(OC)c(OC)c(OC)c3)nc3ccc(C)cc3c2=O)cc1` and `COc1cccc(N=Cc2c3ccccc3c(=O)n3c2oc2ccccc23)c1` cannot be ordered by TGI: greater than 100 µM for the first, greater than 100 µM for the second.

`Cn1cc(C2=C(c3cn(C)c4c(N)cccc34)C(=O)NC2=O)c2ccccc21` and `O=[N+]([O-])c1ccc2nnnn2c1` cannot be ordered by TGI: greater than 20.6 µM for the first, 50.6 µM for the second.

system: SNB-19 CNS; experiment: inhibition of tumour cell growth, NCI panel, 48 h

Compared with `COc1ccc(-n2c(SCc3cc(OC)c(OC)c(OC)c3)nc3ccc(C)cc3c2=O)cc1`, `COc1cccc(N=Cc2c3ccccc3c(=O)n3c2oc2ccccc23)c1` is lower in GI50: greater than 100 µM for the first, 52.2 µM for the second.

For `Cn1cc(C2=C(c3cn(C)c4c(N)cccc34)C(=O)NC2=O)c2ccccc21`, the GI50 was 4.34 µM.

`COc1ccc(-n2c(SCc3cc(OC)c(OC)c(OC)c3)nc3ccc(C)cc3c2=O)cc1` and `COc1cccc(N=Cc2c3ccccc3c(=O)n3c2oc2ccccc23)c1` cannot be ordered by TGI: greater than 100 µM for the first, greater than 100 µM for the second.

`Cn1cc(C2=C(c3cn(C)c4c(N)cccc34)C(=O)NC2=O)c2ccccc21` and `O=[N+]([O-])c1ccc2nnnn2c1` cannot be ordered by TGI: greater than 25 µM for the first, greater than 100 µM for the second.
